Legend:
rat kidneys [1] = experiment: MitoSOX Red mitochondrial superoxide generation, cold storage ex vivo model
Experimental: All animals were treated according to the National Institutes of Health Guide for the Care and Use of Laboratory Animals and the University of Arkansas for Medical Sciences Institutional Animal Care and Use Committee guidelines. Male Fischer 344 inbred rats (Charles Rivers Laboratories, Inc., Wilmington, Mass.) weighing between 250 and 300 g were anesthetized with ethrane, followed by shaving and prepping with betadine. […] Bulldog clamps were placed on the aorta and vena cava (proximal and distal to the renal vessels) to prevent blood flow to the kidneys. A 22-gauge surgical needle was used to puncture the rat's aorta to flush the renal grafts with saline (10 ml per kidney) using a small catheter. Once the kidneys started to turn light brown (perfusion), another vent was formed in the vena cava to allow blood flow from the kidneys. Once both kidneys were completely flushed, the right kidney was recovered and served as a control (group 1), and the left kidney was exposed to CS alone for 4 h at 4° C. (group 2). In additional experiments, kidneys were flushed with saline through the aorta using a small catheter followed by flushing the right kidney with saline containing MitoQ (100 μM) and the left kidney with saline containing DecylTPP (100 μM) (10 ml per kidney). Tissues were recovered and stored in CS+MitoQ (100 μM; right kidney) or CS+DecylTPP (100 μM; left kidney) for 4 h at 4° C. (groups 3 and 4, respectively). […]
MitoSOX Red (Invitrogen) was used to measure mitochondrial superoxide generation during CS. […] Fluorescence was visualized using an Eclipse E800 microscope (Nikon, Melville, N.Y.) with a rhodamine filter using a water immersion objective (60×). Fluorescent images of NRK cells were captured with equal exposure times and quantified by averaging the mean intensity fluorescence of five random cells in three different fields using Nikon N is Elements software. In separate experiments, cells were grown on coverslips, preloaded with MitoSOX Red before treatment (groups 1-4), and evaluated for mitochondrial superoxide generation using a Hitachi F-2500 spectrofluorometer (Hitachi, Tokyo, Japan) equipped with a coverslip holder using two different excitation wavelengths: 396 and 510 nm with the emission measured at 580 nm as previously described. In addition, rat kidneys were monitored for mitochondrial superoxide generation by flushing kidneys with saline through the aorta using a small catheter as described under Cold Storage Ex Vivo Model, followed by saline containing MitoSOX Red (5 μM; 10 ml/kidney) before treatment (groups 1-4). Paraffin sections were analyzed using the rhodamine filter on the Nikon Eclipse 800 microscope (20×).

NRK cells = experiment: LDH cytotoxicity assay, CS and CS plus rewarming; type: cell-based; settings: 1 μM
Experimental: Normal rat kidney proximal tubular cells (NRK-52E; American Type Culture Collection, Manassas, Va.) were maintained in six-well 100 or 150-mm, or 150-mm plates in a humidified incubator gassed with 5% CO2 and 95% air at 37° C. in DMEM (Invitrogen, Carlsbad, Calif.) containing 5% fetal calf serum (FCS). Cells were grown to 60% confluence and divided into four treatment groups: 1) untreated (Untx), 2) CS, 3) CS+MitoQ, and 4) CS+DecylTPP. Untreated cells remained at 37° C. in DMEM containing 5% FCS (group 1). CS was initiated by washing cells with cold PBS (Invitrogen) twice and storing them in UW/Viaspan solution alone (4 h at 4° C.) (group 2), CS+MitoQ (1 μM) (group 3), or CS+DecylTPP (1 μM) (group 4). In separate experiments, cells were exposed to CS plus RW by replacing UW solution alone or UW solution containing MitoQ or DecylTPP with DMEM containing 5% FCS overnight (18 h at 37° C.).
Cell cytotoxicity was determined using the LDH-Cytotoxicity Assay Kit II (Biovision Research Products, Mountain View, Calif.) according to the manufacturer's instructions. Absorbance was measured at 450 nm using a SpectraMax 190 microplate reader and SpectraMax software (Molecular Devices, Sunnyvale, Calif.). Renal cell death was determined using TUNEL staining. Kidney sections were deparaffinized, rehydrated, and exposed to antigen retrieval (20-min incubation at 95° C. with 10 mM sodium citrate buffer, pH 6.0) followed by washing with distilled water and quenching of endogenous peroxidase. Sections were immersed in TdT labeling buffer and then incubated in a humidified chamber with the labeling reaction mix from the TAGS 2 TdT-DAB In Situ Apoptosis Detection kit (Trevigen, Inc., Gaithersburg, Md.) for 1 h at room temperature. The reaction was stopped with TdT stop buffer, and slides were subsequently washed with PBS. Sections were incubated for 10 min with streptavidin-HRP followed by development with diaminobenzidine solution, counterstaining with Mayer's hematoxylin, dehydration, and mounting with Cytoseal-60. The amount of cell death was calculated by averaging the number of cells positive for TUNEL (brown staining) in 10 different fields (cortex and medulla) (20×). All images were taken at equal exposure times (40×oil).

rat kidneys [2] = experiment: TUNEL staining of renal cell death during CS; settings: 4 h CS, 100 μM
Experimental: All animals were treated according to the National Institutes of Health Guide for the Care and Use of Laboratory Animals and the University of Arkansas for Medical Sciences Institutional Animal Care and Use Committee guidelines. Male Fischer 344 inbred rats (Charles Rivers Laboratories, Inc., Wilmington, Mass.) weighing between 250 and 300 g were anesthetized with ethrane, followed by shaving and prepping with betadine. […] Bulldog clamps were placed on the aorta and vena cava (proximal and distal to the renal vessels) to prevent blood flow to the kidneys. A 22-gauge surgical needle was used to puncture the rat's aorta to flush the renal grafts with saline (10 ml per kidney) using a small catheter. Once the kidneys started to turn light brown (perfusion), another vent was formed in the vena cava to allow blood flow from the kidneys. […]
Cell cytotoxicity was determined using the LDH-Cytotoxicity Assay Kit II (Biovision Research Products, Mountain View, Calif.) according to the manufacturer's instructions. Absorbance was measured at 450 nm using a SpectraMax 190 microplate reader and SpectraMax software (Molecular Devices, Sunnyvale, Calif.). Renal cell death was determined using TUNEL staining. […] The amount of cell death was calculated by averaging the number of cells positive for TUNEL (brown staining) in 10 different fields (cortex and medulla) (20×). […]

[3] = system: mitochondrial respiratory complex; experiment: Mitochondrial respiratory complex activity in kidneys following cold storage (Example 1); design: species or system rat; settings: following cold preservation (Example 1); MitoQ 100 μM
Experimental: FIG. 4 depicts a graph showing the effect of MitoQ treatment (100 μM) on mitochondrial respiratory complex activity in kidneys following cold storage *P<0.05 compared with control.
(§1) Rodent models of warm ischemia/reperfusion (I/R) (FIGS. 6-7) and cold renal preservation, as well as renal cell models of cold storage (FIG. 3-5) were used to evaluate the effectiveness of MitoQ in preventing renal damage during ischemia. […] In addition, Mito Q blunted mitochondrial superoxide production (Mitosox Red staining) and respiratory complex dysfunction following cold preservation (FIGS. 4-5).

rat kidneys [4] = experiment: Rodent model of warm ischemia/reperfusion (I/R); type: in vivo; settings: rat kidneys following warm I/R; MitoQ 48 hr oral; 100 μM
From the text: as §1

In the case of COC1=C(OC)C(=O)C(CCCCCCCCCC[P+](c2ccccc2)(c2ccccc2)c2ccccc2)=C(C)C1=O [MitoQ, mitoquinone], the “mitochondrial superoxide production (Mitosox Red staining)” value (rat kidneys [1]; following cold preservation (Example 1)) is reported as “blunted”, the “mitochondrial superoxide generation (MitoSOX Red)” value (rat kidneys [1]; rat kidneys, 4 h CS at 4° C., 100 μM) is reported as “markedly decreased” and the “MitoSox Red staining (superoxide)” value (rat kidneys [1]; rat kidneys, cold storage 4 hr UW, 4° C., UW+MitoQ (100 µM), n=3) is reported as “decreases”. The “decrease of cell death (LDH cytotoxicity)” value (NRK cells; CS alone) was “approximately 2 fold”, the “decrease of cell death (LDH cytotoxicity)” value (NRK cells; CS.RW) was “approximately 2 fold” and the “decrease of cell death (TUNEL) compared with CS kidneys” value (rat kidneys [2]) was about 2 fold. For the same molecule, the respiratory complex dysfunction [3] was “blunted” and the MnSOD activity (rat kidneys [4]) was “improved”.
